Patent US20240400553A1, “AMINE BASED MATRIPTASE 2 INHIBITORS AND USES THEREOF” (Disc Medicine, Inc., priority 2023, published 2024)

Biological target: T1, Human Recombinant Matriptase 2 (Homo sapiens, UniProt Q8IU80)
T1 construct: made in house
T1 sequence (Q8IU80 1-811): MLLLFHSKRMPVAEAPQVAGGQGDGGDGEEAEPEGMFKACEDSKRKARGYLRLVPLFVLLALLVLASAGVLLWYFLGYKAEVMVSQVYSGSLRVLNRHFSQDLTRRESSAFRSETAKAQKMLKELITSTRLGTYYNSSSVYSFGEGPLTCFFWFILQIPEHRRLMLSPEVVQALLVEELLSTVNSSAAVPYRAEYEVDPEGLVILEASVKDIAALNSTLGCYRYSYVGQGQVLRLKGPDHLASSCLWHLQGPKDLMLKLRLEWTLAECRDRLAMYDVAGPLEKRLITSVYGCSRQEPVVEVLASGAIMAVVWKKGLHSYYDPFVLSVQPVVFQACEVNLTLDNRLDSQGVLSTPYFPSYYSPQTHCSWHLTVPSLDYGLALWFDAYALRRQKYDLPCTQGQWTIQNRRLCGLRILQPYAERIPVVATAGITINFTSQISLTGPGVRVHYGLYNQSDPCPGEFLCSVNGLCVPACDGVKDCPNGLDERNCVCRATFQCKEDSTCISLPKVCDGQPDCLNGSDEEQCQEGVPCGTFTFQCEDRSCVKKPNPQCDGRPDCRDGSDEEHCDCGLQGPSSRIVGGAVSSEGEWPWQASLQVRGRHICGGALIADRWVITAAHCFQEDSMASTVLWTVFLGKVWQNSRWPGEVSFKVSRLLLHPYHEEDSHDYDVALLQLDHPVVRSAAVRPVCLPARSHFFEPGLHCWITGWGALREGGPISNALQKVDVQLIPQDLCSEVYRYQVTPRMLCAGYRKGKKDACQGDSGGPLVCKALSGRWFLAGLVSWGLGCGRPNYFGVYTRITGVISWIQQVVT
Test: Matriptase 2 inhibition, fluorescence based assay (Method I)
Type: biochemical
Settings: Table A; Ki of Matriptase-2; read-out: Mat-2 Ki
How it was run: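 In-house recombinant enzyme (3.5 nM), preincubated 30 min with compound, then Boc-Gln-Ala-Arg-AMC substrate (62 μM) in 50 mM Tris pH 7.5, 150 mM NaCl, 0.01% gelatin, 1% DMSO, 25 °C. Fluorescence (Ex 360/Em 480 nm) read 60 min after substrate; IC50 from variable-slope sigmoidal fit of % inhibition.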

Ki [nM]	Structure (SMILES)
500 to 3000	NCc1ccc2cc(C(=O)OCC34CC(F)(C3)C4)n(Cc3cc(NS(=O)(=O)Cc4ccccc4)cc4ccccc34)c2n1 [Compound 117, {3-fluorobicyclo[1.1.1]-pentan-1-yl}methyl 6-(aminomethyl)-1-{[3-(phenylmethanesulfon-amido)naphthalen-1-yl]-methyl}-1H-pyrrolo[2,3-b]pyridine-2-carboxylate]
≤ 100	CC(=O)N1CCC(COC(=O)c2cc3ccc(CN)nc3n2Cc2cc(NS(=O)(=O)Cc3ccccc3)cc3ccccc23)CC1 [Compound 67, (1-acetylpiperidin-4-yl)-methyl 6-(aminomethyl)-1-{[3-(phenylmethane-sulfonamido)naphthalen-1-yl]methyl}-1H-pyr-rolo[2,3-b]pyridine-2-carboxylate]
≤ 100	CC(C)(C)n1cncc1COC(=O)c1cc2ccc(CN)nc2n1Cc1cc(NS(=O)(=O)Cc2ccsc2)cc2ccccc12 [Compound 159, (1-tert-butyl-1H-imid-azol-5-yl)methyl 6-(aminomethyl)-1-({3-[(thiophen-3-yl)methane-sulfonamido]naphthalen-1-yl}methyl)-1H-pyr-rolo[2,3-b]pyridine-2-carboxylate]
≤ 100	NCc1ccc2cc(C(=O)NCCN3CCOCC3)n(Cc3cc(NS(=O)(=O)Cc4ccccc4)cc4ccccc34)c2n1 [Compound 60, 6-(aminomethyl)-N-[2-(morpholin-4-yl)ethyl]-1-{[3-(phenylmethane-sulfonamido)naphthalen-1-yl]methyl}-1H-pyr-rolo[2,3-b]pyridine-2-carboxamide]
≤ 100	CN(C)CCCCCOC(=O)c1cc2ccc(CN)nc2n1Cc1cc(NS(=O)(=O)Cc2ccccc2)cc2ccccc12 [Compound 34, 5-(dimethylamino)pentyl 6-(aminomethyl)-1-{[3-(phenylmethanesulfon-amido)naphthalen-1-yl]-methyl}-1H-pyrrolo[2,3-b]pyridine-2-carboxylate]
≤ 100	Cc1cccc(C)c1CS(=O)(=O)Nc1cc(Cn2c(C(=O)OC[C@H]3COCCN3)cc3ccc(CN)nc32)c2ccccc2c1 [Compound 189, [(3R)-morpholin-3-yl]-methyl 6-(aminomethyl)-1-({3-[(2,6-dimethyl-phenyl)methanesulfon-amido]naphthalen-1-yl}-methyl)-1H-pyrrolo[2,3-b]pyridine-2-carboxylate]
≤ 100	NCc1ccc2cc(C(=O)OCCN3CCOCC3)n(Cc3cc(NS(=O)(=O)Cc4cccs4)cc4ccccc34)c2n1 [Compound 151, 2-(morpholin-4-yl)ethyl 6-(aminomethyl)-1-({3-[(thiophen-2-yl)methane-sulfonamido]naphthalen-1-yl}methyl)-1H-pyr-rolo[2,3-b]pyridine-2-carboxylate]
≤ 100	CN1CCO[C@@H](COC(=O)c2cc3ccc(CN)nc3n2Cc2cc(NS(=O)(=O)Cc3ccccc3)cc3ccccc23)C1 (racemic) [Compound 64, (4-methylmorpholin-2-yl)methyl 6-(aminometh-yl)-1-{[3-(phenylmeth-anesulfonamido)naph-thalen-1-yl]methyl}-1H-pyrrolo[2,3-b]pyridine-2-carboxylate]
100 to 500	CC(C)(C)n1cncc1CCOC(=O)c1cc2ccc(CN)nc2n1Cc1cc(NS(=O)(=O)Cc2ccccc2)cc2ccccc12 [Compound 104, 2-(1-tert-butyl-1H-imid-azol-5-yl)ethyl 6-(amino-methyl)-1-{[3-(phenyl-methanesulfonamido)-naphthalen-1-yl]methyl}-1H-pyrrolo[2,3-b]pyr-idine-2-carboxylate]
100 to 500	COCCN1CCC(COC(=O)c2cc3ccc(CN)nc3n2Cc2cc(NS(=O)(=O)Cc3ccccc3)cc3ccccc23)CC1 [Compound 142, [1-(2-methoxyethyl)-piperidin-4-yl]methyl 6-(aminomethyl)-1-{[3-(phenylmethanesulfon-amido)naphthalen-1-yl]-methyl}-1H-pyrrolo[2,3-b]pyridine-2-carboxylate]
100 to 500	Cc1nccn1CCOC(=O)c1cc2ccc(CN)nc2n1Cc1cc(NS(=O)(=O)Cc2ccccc2)cc2ccccc12 [Compound 140, 2-(2-methyl-1H-imid-azol-1-yl)ethyl 6-(amino-methyl)-1-{[3-(phenyl-methanesulfonamido)-naphthalen-1-yl]methyl}-1H-pyrrolo[2,3-b]pyr-idine-2-carboxylate]

Same assay, conditions: Table A; Ki of Matriptase-2 given as class symbols; read-out: Mat-2 Ki

Ki [nM]	Structure (SMILES)
100 to 500	NCc1ccc2cc(C(=O)O)n(Cc3cc(NS(=O)(=O)Cc4ccno4)cc4ccccc34)c2n1 [Compound 233, 6-(aminomethyl)-1-({3-[(1,2-oxazol-5-yl)-methanesulfonamido]-naphthalen-1-yl}methyl)-1H-pyrrolo[2,3-b]pyr-idine-2-carboxylic acid]
500 to 3000	COCCN1CCN(C(=O)Nc2cc(Cn3c(C(=O)O)cc4ccc(CN)cc43)c3ccccc3c2)CC1 [Compound 394, 6-(aminomethyl)-1-((3-(4-(2-methoxyethyl)piperazine-1-carboxamido)naphthalen-1-yl)methyl)-1H-indole-2-carboxylic acid]
100 to 500	NCc1ccc2cc(CO)n(Cc3cc(NS(=O)(=O)CC4CCNCC4)cc4ccccc34)c2n1 [Compound 362]
500 to 3000	C[C@@H]1C[C@H](C)CN(C(=O)Nc2cc(Cn3c(C(=O)O)cc4ccc(CN)nc43)c3ccccc3c2)C1 [Compound 301, 6-(aminomethyl)-1-[(3-{[(3R,5S)-3,5-dimeth-ylpiperidine-1-carbonyl]-amino}naphthalen-1-yl)-methyl]-1H-pyrrolo[2,3-b]pyridine-2-carboxylic acid]
100 to 500	NCc1ccc2cc(C(=O)O)n(Cc3cc(NS(=O)(=O)C[C@H]4CNCCO4)cc4ccccc34)c2c1 (racemic) [Compound 391, 6-(aminomethyl)-1-({3-[(morpholin-2-l)methane-sulfonamido]naphthalen-1-yl}methyl)-1H-indole-2-carboxylic acid]
100 to 500	Cc1cccc(C)c1CS(=O)(=O)Nc1cc(Cn2c(C(=O)OCCN(C)C)cc3ccc(CN)nc32)c2ccccc2c1 [Compound 201, 2-(dimethylamino)ethyl 6-(aminomethyl)-1-({3-[(2,6-dimethylphenyl)-methanesulfonamido]-naphthalen-1-yl}methyl)-1H-pyrrolo[2,3-b]pyr-idine-2-carboxylate]
500 to 3000	COCCN1CCC(CS(=O)(=O)Nc2cc(Cn3c(C(=O)OCC4CCN(C)CC4)cc4ccc(CN)nc43)c3ccccc3c2)CC1 [Compound 253]
≤ 100	COCCN1CCC(CS(=O)(=O)Nc2cc(Cn3c(C(=O)O)cc4ccc(CN)nc43)c3ccccc3c2)CC1 [Compound 211, 6-(aminomethyl)-1-[(3-{[1-(2-methoxyethyl)-piperidin-4-yl]methane-sulfonamido}naphthalen-1-yl)methyl]-1H-pyr-rolo[2,3-b]pyridine-2-carboxylic acid]

Same assay, conditions: Table B; Human Recombinant Matriptase 2, 3.5 nM enzyme, 62 μM substrate, 30 mins preincubation; read-out: Mean Ki

Ki [nM]	Structure (SMILES)
100 to 500	CN1CCC(CCOC(=O)c2cc3ccc(CN)nc3n2Cc2cc(NS(=O)(=O)Cc3ccccc3)cc3c2CCCC3)CC1=O (centres unmarked) [Compound 2.1]
≤ 100	CN1CC(COC(=O)c2cc3ccc(CN)nc3n2Cc2cc(NS(=O)(=O)Cc3ccccc3)cc3ccccc23)CC1=O (centres unmarked) [Compound 2.21]
100 to 500	CN1CCC(COC(=O)c2cc3ccc(CN)nc3n2Cc2cc(NS(=O)(=O)CC3CC3)cc3ccccc23)CC1 [Compound 2.28]
≤ 100	CN1CCC(CCCOC(=O)c2cc3ccc(CN)nc3n2Cc2cc(NS(=O)(=O)Cc3ccccc3)cc3ccccc23)CC1 [Compound 2.23]
